Reference: article PMC7765489, “Structural Characterization of Glycerol Kinase from the Thermophilic Fungus Chaetomium thermophilum” (International Journal of Molecular Sciences, 2020)

Tests used:
CtGK [1] = target: T1, CtGK (Thermochaetoides thermophila, UniProt G0SAG9); experiment: thermal shift assay, Sypro Orange; type: binding; details: 50 mM Tris, 200 mM NaCl, pH 8.0
T1 construct: gene CTHT_0042250; residues 67-590 (models start at residue 65), N-terminal His-tag cut by TEV, codon-optimized gene, E. coli BL21(DE3), dimer
T1 sequence (G0SAG9 67-590): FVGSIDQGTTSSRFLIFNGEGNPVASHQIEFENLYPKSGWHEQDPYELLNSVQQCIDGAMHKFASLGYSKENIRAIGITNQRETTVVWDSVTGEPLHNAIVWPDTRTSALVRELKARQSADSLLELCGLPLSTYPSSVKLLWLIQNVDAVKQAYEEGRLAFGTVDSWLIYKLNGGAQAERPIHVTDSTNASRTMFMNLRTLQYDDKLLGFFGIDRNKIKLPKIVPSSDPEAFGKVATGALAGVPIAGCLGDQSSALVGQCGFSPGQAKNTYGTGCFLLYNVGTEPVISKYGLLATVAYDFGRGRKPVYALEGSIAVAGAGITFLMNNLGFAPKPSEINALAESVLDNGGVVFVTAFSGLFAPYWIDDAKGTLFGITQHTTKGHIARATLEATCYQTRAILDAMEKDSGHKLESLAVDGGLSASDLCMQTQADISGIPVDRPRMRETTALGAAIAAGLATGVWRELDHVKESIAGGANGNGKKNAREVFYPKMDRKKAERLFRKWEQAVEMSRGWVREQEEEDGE

CtGK [2] = target: T1, CtGK; experiment: X-ray crystal structure (glycerol soak); type: binding; details: 20-25% glycerol as cryoprotectant; 0.2 M CaCl2, PEG 3350; active site in N-terminal domain
[3] = target: the molecule itself; experiment: SEC-MALS; XBridge BEH200 7.8 x 300 column, 50 mM Tris pH 7.8, 200 mM NaCl, 1 mL/min
purified protein = substrate: Nc1ncnc2c1ncn2[C@@H]1O[C@H](COP(=O)(O)OP(=O)(O)OP(=O)(O)O)[C@@H](O)[C@H]1O; experiment: purified protein; type: biochemical, Thermochaetoides thermophila; details: 1 mM glycerol, 5 mM MgCl2, 50 mM KCl, 250 mM sucrose, 20 mM Tris-HCl pH 7.4, 37 °C, substrate inhibition at high ATP

**Q.** With `Nc1ncnc2c1ncn2[C@@H]1O[C@H](COP(=O)(O)OP(=O)(O)O)[C@@H](O)[C@H]1O` [ADP] as the molecule, how does the Tm (CtGK [1]; 0.5 mM ADP, no glycerol) read?
**A.** The Tm was 55.0 ± 1.11 °C.

**Q.** `Nc1ncnc2c1ncn2[C@@H]1O[C@H](COP(=O)(O)OP(=O)(O)OP(=O)(O)O)[C@@H](O)[C@H]1O` [ATP] was tested. Which Tm (CtGK [1]; 0.5 mM ATP, no glycerol) did it give?
**A.** Its Tm is 54.5 ± 0.00 °C.

**Q.** With `O=P(O)(O)OC[C@H]1OC(O)(COP(=O)(O)O)[C@@H](O)[C@@H]1O` (stereo partly shown) [fructose-1,6-bisphosphate] as the molecule, how does the Tm (CtGK [1]; 0.5 mM FBP, with GOL and ATP, site unidentified) read?
**A.** The Tm was “FBP prevents the protein destabilization by GOL and ATP (Figure S1B)”.

**Q.** What does the source list for `OCC(O)CO` [glycerol]?
**A.** X-ray crystal structure (glycerol soak) (CtGK [2]): we were able to solve the enzyme-substrate complex with a clear electron density; Tm (CtGK [1]; 5% glycerol, no nucleotide): 53.88 ± 0.48 °C

B1: glycerol kinase from Chaetomium thermophilum (enzyme, UniProt G0SAG9 67-590, looked up)
chain: FVGSIDQGTTSSRFLIFNGEGNPVASHQIEFENLYPKSGWHEQDPYELLNSVQQCIDGAMHKFASLGYSKENIRAIGITNQRETTVVWDSVTGEPLHNAIVWPDTRTSALVRELKARQSADSLLELCGLPLSTYPSSVKLLWLIQNVDAVKQAYEEGRLAFGTVDSWLIYKLNGGAQAERPIHVTDSTNASRTMFMNLRTLQYDDKLLGFFGIDRNKIKLPKIVPSSDPEAFGKVATGALAGVPIAGCLGDQSSALVGQCGFSPGQAKNTYGTGCFLLYNVGTEPVISKYGLLATVAYDFGRGRKPVYALEGSIAVAGAGITFLMNNLGFAPKPSEINALAESVLDNGGVVFVTAFSGLFAPYWIDDAKGTLFGITQHTTKGHIARATLEATCYQTRAILDAMEKDSGHKLESLAVDGGLSASDLCMQTQADISGIPVDRPRMRETTALGAAIAAGLATGVWRELDHVKESIAGGANGNGKKNAREVFYPKMDRKKAERLFRKWEQAVEMSRGWVREQEEEDGE
notes: glycerol kinase, Chaetomium thermophilum, UniProt G0SAG9, residues 67-590; codon-optimised synthetic gene in pET24d with N-terminal His-Tag and TEV site; The crystal models begin at residue 65 (67 for chain B) although the construct is stated as 67-590; also called CtGK; GK; source: E. coli BL21 (DE3), purified (Ni-Sepharose, TEV cleavage, second Ni-Sepharose, gel filtration on Superdex 75); not …
**Q.** How did the “stoichiometry N” value [3] turn out when B1 was run?
**A.** Its value is 2.

**Q.** And the Km (purified protein)?
**A.** Its Km is 52 ± 9 µM.
